{"source": "patent US11484608B2", "about": "“Non-invasive assessment of hepatic mitochondrial metabolism by positional isotopomer NMR tracer analysis (PINTA)” (YALE UNIVERSITY, priority 2017, dated 2022)", "key": {"[1]": {"system": "primary hepatocytes (cytosolic and mitochondrial calcium)", "assay": "Ca2+ imaging in isolated hepatocytes", "assay_type": "cell-based, mouse", "conditions": "isolated WT hepatocytes (not InsP3R-I KO); 100 nM glucagon or 50 nM vasopressin", "method": "Primary hepatocytes were isolated by the Yale Liver Center from wild-type and InsP3R-I KO mice and plated on glass coverslips coated with Rat Collagen Type I. Cells were loaded with the ratiometric cytosolic Ca^2+ indicator dye, Fura-2 AM (Thermo Fisher Scientific), or the mitochondrial matrix-targeted Ca^2+ indicator, Rhod-2 AM (Thermo Fisher Scientific) according to manufacturer's instructions. Ca^2+ imaging experiments were performed in 4-(2-hydroxyethyl)-1-piperazine ethanesulfonic acid (HEPES)-buffered balanced salt solution (25 mM HEPES, 121 mM NaCl, 4.7 mM KCl, 1.2 mM MgSO4, 1.2 mM KPO4, 5 mM NaHCO3, 2.0 mM CaCl2, 10 mM Glucose, pH 7.4) with or without the PKA inhibitor H-89 (25 μM) two to five hr following initial plating. Coverslips were transferred to a custom-built perfusion chamber on the stage of an inverted microscope connected to a RedShirtImaging camera (Olympus Life Science, Waltham, Mass.). […] For cytoplasmic calcium readings, changes in fluorescence (F, λ=340) were normalized by the initial fluorescence (F0, λ=380) and were expressed as F/F0. […] Individual cell responses were normalized to their respective baseline Rhod-2 AM fluorescence values, and changes were expressed as Normalized Δ Fluorescence."}, "[2]": {"system": "NAFLD and glucose tolerance (InsP3R-I dependent)", "assay": "Chronic 3.5 week glucagon infusion in high fat fed WT and InsP3R-I KO mice", "assay_type": "in vivo, mouse", "method": "They underwent CLAMS metabolic cage analysis to assess energetics and food and water intake during the second week of glucagon infusion. […] 48 hr later, after a 6 hr fast, they were sacrificed under isoflurane anesthesia for measurement of hepatic lipid content as described below.\nIn the glucose tolerance tests, rodents were injected with 1 g kg^−1 50% dextrose (rats) or 10% dextrose (mice) intraperitoneally. Blood samples were taken through the venous catheter (rats) or by tail bleeding (mice) for measurement of plasma glucose and insulin concentrations as described below (Biochemical analysis).\nPlasma glucose concentrations were measured using a YSI Glucose Analyzer. […] Plasma NEFA concentrations were measured using the Wako NEFA assay, while plasma glycerol and plasma and liver amino acid concentrations were measured by GC/MS. Liver acetyl- and malonyl-CoA (standard curve R^2=0.999 and 0.999), long-chain CoA, DAG, and ceramide concentrations were measured by LC-MS/MS, hepatic glycogen content following amyloglucosidase digestion, and TAG concentrations enzymatically. cAMP concentrations were measured using the Enzo Life Sciences Direct cAMP ELISA. Protein concentrations were measured by Western blot, using antibodies from Santa Cruz (PC, PEPCK, CAMKII), Cell Signaling (ATGL, pCAMKIV, CAMKIV, pCRTC2, CRTC2, pACC, ACC, pAMPK, AMPK, pHSL, HSL, GAPDH, and β-actin), Novus Biologicals (pCAMKII), Abcam (pATGL), LSBio (pInsP3R-I), and BD Transduction Laboratories (InsP3R-II, InsP3R-III, PKCε). The antibody to pATGL was kindly provided by Dr. Hei Sook Sul, while the antibody to total InsP3R-I was custom-made using an epitope against the last 18 amino acids of InsP3R-I. Gluconeogenic gene mRNA expression was measured by qPCR^45 using primers sequences as follows: […]"}}}
{"substance": "glucagon", "values": [{"measurement": "mitochondrial and cytosolic calcium signaling", "setting": "[1]", "result": "increases"}, {"measurement": "hepatic lipid content or glucose tolerance", "setting": "[2]; diet-induced obese InsP3R-I KO mice", "result": "did not manifest any alterations"}, {"measurement": "body weight, food and water intake, activity and energy expenditure", "setting": "[2]; diet-induced obese WT mice", "result": "unchanged"}, {"measurement": "glucose tolerance", "setting": "[2]; diet-induced obese WT mice", "result": "marked improvement"}, {"measurement": "hepatic ceramide concentrations", "setting": "[2]; diet-induced obese WT mice", "result": "without any alterations"}, {"measurement": "reductions in liver triglyceride and diacylglycerol content and PKCε translocation", "setting": "[2]; diet-induced obese WT mice, four-week continuous glucagon infusion", "result": "50-80%"}]}
